Experiments:
SARS-CoV-2 [1] = test: Antiviral activity against SARS-CoV-2 infected in Vero E6 cells assessed as reduction in viral replication at 12.5 uM preincubated for 30 mins followed by viral infection measured after 72 hrs by crystal violet staining based plaque assay; assay type: functional, Severe acute respiratory syndrome coronavirus 2; design: scale not given: the % may be the effect or the level left
SARS-CoV-2 [2] = test: Antiviral activity against pseudotyped SARS-CoV-2 infected in Huh7 cells expressing hACE2 at 10 uM preincubated for 1 hr followed by cell infection measured after 2 days by bright-Glo luciferase assay; assay type: functional, Severe acute respiratory syndrome coronavirus 2, Huh-7; conditions: time 49 hrs

| SMILES | Activity (SARS-CoV-2 [1]) [%] | Activity (SARS-CoV-2 [2]) [%] |
| --- | --- | --- |
| CC[C@H](C)[C@H](NC(=O)CNC(=O)[C@H](CO)NC(=O)[C@@H](NC(=O)[C@H](CC(=O)O)NC(C)=O)[C@@H](C)CC)C(=O)N[C@@H](CC(N)=O)C(=O)N[C@@H](C)C(=O)N[C@@H](CO)C(=O)N[C@H](C(=O)N[C@H](C(=O)N[C@@H](CC(N)=O)C(=O)N[C@H](C(=O)N[C@@H](CCC(N)=O)C(=O)N[C@@H](CCCCN)C(=O)N[C@@H](CCC(=O)O)C(=O)N[C@H](C(=O)N[C@@H](CC(=O)O)C(=O)N[C@@]1(C)CCC/C=C\CCC[C@@](C)(C(=O)N[C@@H](C)C(=O)N[C@@H](CCCCN)C(=O)N[C@@H](CC(N)=O)C(=O)N[C@@H](CC(C)C)C(=O)N[C@@H](CC(N)=O)C(=O)N[C@@H](CCC(=O)O)C(=O)N[C@@H](CO)C(=O)N[C@@H](CC(C)C)C(=O)N[C@H](C(=O)N[C@@H](CC(=O)O)C(=O)N[C@@H](CC(C)C)C(=O)N[C@@H](CCC(N)=O)C(=O)N[C@@H](CCC(=O)O)C(=O)N[C@@H](CC(C)C)C(N)=O)[C@@H](C)CC)NC(=O)[C@H](CCC(=O)O)NC(=O)[C@H](CC(N)=O)NC(=O)[C@H](CC(C)C)NC1=O)[C@@H](C)CC)[C@@H](C)CC)C(C)C)C(C)C | 41 | 36.8 |
| CC[C@H](C)[C@H](NC(=O)CNC(=O)[C@H](CO)NC(=O)[C@@H](NC(=O)[C@H](CC(=O)O)NC(C)=O)[C@@H](C)CC)C(=O)N[C@@H](CC(N)=O)C(=O)N[C@@H](C)C(=O)N[C@@H](CO)C(=O)N[C@H](C(=O)N[C@H](C(=O)N[C@@H](CC(N)=O)C(=O)N[C@H](C(=O)N[C@@H](CCC(N)=O)C(=O)N[C@@]1(C)CCC/N=C\CCC[C@@](C)(C(=O)N[C@@H](CC(C)C)C(=O)N[C@@H](CC(N)=O)C(=O)N[C@@H](CCC(=O)O)C(=O)N[C@H](C(=O)N[C@@H](C)C(=O)N[C@@H](CCCCN)C(=O)N[C@@H](CC(N)=O)C(=O)N[C@@H](CC(C)C)C(=O)N[C@@H](CC(N)=O)C(=O)N[C@@H](CCC(=O)O)C(=O)N[C@@H](CO)C(=O)N[C@@H](CC(C)C)C(=O)N[C@H](C(=O)N[C@@H](CC(=O)O)C(=O)N[C@@H](CC(C)C)C(=O)N[C@@H](CCC(N)=O)C(=O)N[C@@H](CCC(=O)O)C(=O)N[C@@H](CC(C)C)C(N)=O)[C@@H](C)CC)C(C)C)NC(=O)[C@H](CC(=O)O)NC(=O)[C@H]([C@@H](C)CC)NC(=O)[C@H](CCC(=O)O)NC1=O)[C@@H](C)CC)C(C)C)C(C)C | 28.5 | 16.1 |
| CC[C@H](C)[C@H](NC(=O)CNC(=O)[C@H](CO)NC(=O)[C@@H](NC(=O)[C@H](CC(=O)O)NC(C)=O)[C@@H](C)CC)C(=O)N[C@@H](CC(N)=O)C(=O)N[C@@H](C)C(=O)N[C@@H](CO)C(=O)N[C@H](C(=O)N[C@H](C(=O)N[C@@H](CC(N)=O)C(=O)N[C@H](C(=O)N[C@@H](CCC(N)=O)C(=O)N[C@@H](CCCCN)C(=O)N[C@@H](CCC(=O)O)C(=O)N[C@H](C(=O)N[C@@H](CC(=O)O)C(=O)N[C@@H](CCCNC(=N)N)C(=O)N[C@@]1(C)CCC/C=C\CCC[C@@](C)(C(=O)N[C@@H](CCCCN)C(=O)N[C@@H](CC(N)=O)C(=O)N[C@@H](CC(C)C)C(=O)N[C@@H](CC(N)=O)C(=O)N[C@@H](CCC(=O)O)C(=O)N[C@@H](CO)C(=O)N[C@@H](CC(C)C)C(=O)N[C@H](C(=O)N[C@@H](CC(=O)O)C(=O)N[C@@H](CC(C)C)C(=O)N[C@@H](CCC(N)=O)C(=O)N[C@@H](CCC(=O)O)C(=O)N[C@@H](CC(C)C)C(N)=O)[C@@H](C)CC)NC(=O)[C@H](C(C)C)NC(=O)[C@H](CCC(=O)O)NC(=O)[C@H](CC(N)=O)NC1=O)[C@@H](C)CC)[C@@H](C)CC)C(C)C)C(C)C | 33.5 | 25.1 |
